Data published in paper PMC9181938, “Fluorinated Analogues of Lepidilines A and C: Synthesis and Screening of Their Anticancer and Antiviral Activity” (Molecules, 2022).
Like-named read-outs stand apart in the source and are kept apart here.

Columns and labels:
[1] = Cytotoxicity MTT assay (0.1–1000 µM), CC50; assay type: cell-based, Human; details: human, HeLa cells
[2] = Cytotoxicity screening at 10 µM (MTT); assay type: cell-based, Human; details: human, MRC-5 cells, read-out: Cell line (viability %) MRC-5
[3] = Cytotoxicity screening at 10 µM (MTT); assay type: cell-based, Macaca mulatta; details: Macaca mulatta, LLC-MK2 cells, read-out: Cell line (viability %) LLC-MK2
[4] = Cytotoxicity screening at 10 µM (MTT); assay type: cell-based, Mus musculus; details: Mus musculus, NCTC clone 929 cells, read-out: Cell line (viability %) NCTC clone 929
[5] = test system: Human parainfluenza virus type 3 (HPIV-3); assay: Antiviral screening at 10 µM; assay type: cell-based; details: Human respirovirus 3, antiviral screening, HPIV-3-infected cells, read-out: Cell line (viability %) HPIV-3
How it was run: (§1)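 Infected Vero, LLC-MK2, NCTC 929 or HeLa cell monolayers (MOI 0.005; HPIV-3 MOI 0.01) were treated after 1-h adsorption with compounds at 10 µM (0.1% DMSO). Cultures were incubated at 37 °C until cytopathic effect was visible. Viral infection was scored by MTT assay (OD 550/670 nm), in triplicate.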

[6] = test system: Human adenovirus 5 (AdV5); assay: Antiviral screening at 10 µM; assay type: cell-based; details: Human mastadenovirus C, AdV5-infected cells, read-out: Cell line (viability %) AdV5
How it was run: as §1

[7] = test system: Human herpesvirus 1 (HSV-1); assay: Antiviral screening at 10 µM; assay type: cell-based; details: Human alphaherpesvirus 1, antiviral screening, HSV-1-infected cells, read-out: Cell line (viability %) HSV-1
How it was run: as §1

[8] = test system: Encephalomyocarditis virus (EMCV); assay: Antiviral screening at 10 µM; assay type: cell-based; details: Cardiovirus A, EMCV-infected cells, read-out: Cell line (viability %) EMCV
How it was run: as §1

Compound: Cc1c(C)n(Cc2ccccc2)c(=S)n1Cc1ccccc1 [Compound 10a]
- CC50 at 48 h ([1]; MTT, 48 h, read-out: CC50 Cancer Cell Lines HeLa): < 20 µM
- CC50 at 48 h ([1]; Table S2, range 0.1-1000 µM, read-out: Cell line (CC50 M) HeLa): 16.9 ± 2.19 µM
- viability at 48 h, 10 µM [2]: 74.3%
- viability at 48 h, 10 µM [3]: 64.9%
- viability at 48 h, 10 µM [4]: 93.8%
- viability at 10 µM [5]: 69.2%
- viability at 10 µM [6]: 62%
- viability at 10 µM [7]: 29.7%
- viability at 10 µM [8]: 79.6%
